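Protocol summary: plate cells (96-well), add compound at 5 concentrations, incubate 48 h, interpolate endpoints linearly. GI50 = concentration required for 50% inhibition of growth.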 Active and inactive are the calls of the source. No stated cut-off is given here; in the data, active = GI50 up to about 1.1 µM and inactive = higher.
How the values were obtained:
Assay in all cases: growth of human tumour cells (NCI), 48 h
[1] = test system: Malme-3M
[2] = test system: SK-MEL-2
[3] = test system: HL-60
[4] = test system: LOX IMVI
[5] = test system: NCI-H226
[6] = test system: OVCAR-5
[7] = test system: OVCAR-8
[8] = test system: HCC 2998
[9] = test system: RPMI-8226
[10] = test system: A498
[11] = test system: TK-10
[12] = test system: M14
[13] = test system: HCT-15
[14] = test system: UACC-257
[15] = test system: NCI-H460
[16] = test system: RXF 393
[17] = test system: NCI-H23
[18] = test system: OVCAR-3
[19] = test system: MCF7
[20] = test system: MDA-N

| Structure (SMILES) | GI50 [1] | GI50 [2] | GI50 [3] | GI50 [4] | GI50 [5] | GI50 [6] | GI50 [7] | GI50 [8] | GI50 [9] | GI50 [10] | GI50 [11] | GI50 [12] | GI50 [13] [µM] | GI50 [14] | GI50 [15] | GI50 [16] | GI50 [17] | GI50 [18] | GI50 [19] | GI50 [20] |
| --- | --- | --- | --- | --- | --- | --- | --- | --- | --- | --- | --- | --- | --- | --- | --- | --- | --- | --- | --- | --- |
| CCCCCN(CCCCC)C(=O)[C@H](CCC(=O)O)NC(=O)c1cc2ccccc2[nH]1 | 94.8 µM (inactive) | 41.9 µM (inactive) | 29.3 µM (inactive) | > 100 µM (inactive) | 36.6 µM (inactive) | > 100 µM (inactive) | 77.1 µM (inactive) | 33.4 µM (inactive) | 21.8 µM (inactive) | > 100 µM (inactive) | > 100 µM (inactive) | 59.7 µM (inactive) | 54.8 | > 100 µM (inactive) | 39.3 µM (inactive) | 33.3 µM (inactive) | 28.2 µM (inactive) | 42.7 µM (inactive) | – | – |
| O=C1CC(c2ccccc2)[S+]([O-])c2ccccc2N1 (stereo not drawn) | > 100 µM (inactive) | – | > 100 µM (inactive) | > 100 µM (inactive) | > 100 µM (inactive) | > 100 µM (inactive) | 61.7 µM (inactive) | – | > 100 µM (inactive) | – | > 100 µM (inactive) | > 100 µM (inactive) | > 100 | 23.1 µM (inactive) | > 100 µM (inactive) | – | > 100 µM (inactive) | > 100 µM (inactive) | > 100 µM (inactive) | – |
| COc1cc2c(c(C)c1O)[C@H]1COc3ccccc3[C@H]1O2 | 22.1 µM (inactive) | 3.16 µM (inactive) | 2.94 µM (inactive) | 3.65 µM (inactive) | 6.25 µM (inactive) | 55.3 µM (inactive) | 20.9 µM (inactive) | > 10 µM (inactive) | 13.8 µM (inactive) | 24.9 µM (inactive) | 31.5 µM (inactive) | 8.15 µM (inactive) | 4.27 | 12.4 µM (inactive) | 11.3 µM (inactive) | 9.06 µM (inactive) | 13.2 µM (inactive) | 21.9 µM (inactive) | – | – |
| Cc1ccc(S(=O)(=O)Nn2c(S)c(C#N)c(-c3ccc(Cl)cc3)c(C#N)c2=O)cc1 | 30.8 µM (inactive) | 56.8 µM (inactive) | 23 µM (inactive) | 29.9 µM (inactive) | 16.4 µM (inactive) | 50.1 µM (inactive) | 22 µM (inactive) | 38.8 µM (inactive) | 26.2 µM (inactive) | 26.5 µM (inactive) | 25.6 µM (inactive) | 38.1 µM (inactive) | 25.9 | 45.3 µM (inactive) | 17 µM (inactive) | 32.3 µM (inactive) | 30 µM (inactive) | 53.6 µM (inactive) | 44.6 µM (inactive) | – |
| Cn1c2ccccc2n2c3ncccc3c(=O)c(C#N)c12 | 6.04 µM (inactive) | 35 µM (inactive) | 2.09 µM (inactive) | 5.96 µM (inactive) | 1.79 µM (inactive) | 24.5 µM (inactive) | 5.27 µM (inactive) | 21.5 µM (inactive) | > 100 µM (inactive) | 10.4 µM (inactive) | 50.6 µM (inactive) | 32.3 µM (inactive) | 6.18 | 26.5 µM (inactive) | 2.46 µM (inactive) | 16.9 µM (inactive) | 10.2 µM (inactive) | 11 µM (inactive) | 3.81 µM (inactive) | – |
| N#Cc1c2c(c(Nc3ccc(Cl)cc3)n3c1nc1ccccc13)CCCC2 | > 67.6 µM (inactive) | > 63.8 µM (inactive) | 7.03 µM (inactive) | > 63.5 µM (inactive) | > 64.3 µM (inactive) | > 100 µM (inactive) | 37.6 µM (inactive) | 32.9 µM (inactive) | 4.75 µM (inactive) | > 94.6 µM (inactive) | 53.1 µM (inactive) | > 83.2 µM (inactive) | 25.9 | 48 µM (inactive) | 14.8 µM (inactive) | 33.7 µM (inactive) | > 71.3 µM (inactive) | 13.4 µM (inactive) | 7.59 µM (inactive) | – |
| CC(=O)OCC1OC(n2cc(I)c(=O)[nH]c2=O)C(OC(C)=O)C(OC(C)=O)C1OC(C)=O (stereo not drawn) | > 100 µM (inactive) | > 100 µM (inactive) | > 100 µM (inactive) | > 100 µM (inactive) | > 100 µM (inactive) | > 100 µM (inactive) | > 100 µM (inactive) | > 100 µM (inactive) | > 100 µM (inactive) | > 100 µM (inactive) | > 100 µM (inactive) | > 100 µM (inactive) | > 100 | > 100 µM (inactive) | > 100 µM (inactive) | > 100 µM (inactive) | > 100 µM (inactive) | > 100 µM (inactive) | – | – |
| O=C(Nc1ccc(Cl)cc1)NS(=O)(=O)c1c(-c2ccccc2)oc2ccccc2c1=O | > 100 µM (inactive) | 45.2 µM (inactive) | 61.7 µM (inactive) | 9.25 µM (inactive) | > 100 µM (inactive) | > 100 µM (inactive) | 59.3 µM (inactive) | 54.2 µM (inactive) | 58.9 µM (inactive) | 33 µM (inactive) | 23 µM (inactive) | – | 50.6 | > 100 µM (inactive) | 47.4 µM (inactive) | > 100 µM (inactive) | 67 µM (inactive) | – | – | 44.7 µM (inactive) |
| CN1C(=O)C2CCC(=O)N2c2cccnc21 (stereo not drawn) | > 100 µM (inactive) | > 100 µM (inactive) | > 100 µM (inactive) | > 100 µM (inactive) | > 100 µM (inactive) | – | > 100 µM (inactive) | > 100 µM (inactive) | > 100 µM (inactive) | – | > 100 µM (inactive) | – | > 100 | > 100 µM (inactive) | > 100 µM (inactive) | – | > 100 µM (inactive) | > 100 µM (inactive) | > 100 µM (inactive) | > 100 µM (inactive) |
| O=C1CSC(c2cccc([N+](=O)[O-])c2)N1c1ccc(-c2ccc(-n3c(-c4ccccc4)nc4ccccc4c3=O)cc2)cc1 (stereo not drawn) | 29.8 µM (inactive) | 29.2 µM (inactive) | 19.5 µM (inactive) | 34 µM (inactive) | 44.1 µM (inactive) | > 100 µM (inactive) | 40.7 µM (inactive) | > 100 µM (inactive) | 30 µM (inactive) | 64.7 µM (inactive) | > 100 µM (inactive) | 36.2 µM (inactive) | 32.1 | 83.2 µM (inactive) | 25.5 µM (inactive) | – | 59.8 µM (inactive) | 23.3 µM (inactive) | 17.3 µM (inactive) | – |
| O=C(/C=C/c1ccc(O)cc1)c1ccc2c(c1)OCO2 | 31.8 µM (inactive) | 27 µM (inactive) | 12.1 µM (inactive) | 18.7 µM (inactive) | 15.5 µM (inactive) | 27.4 µM (inactive) | 15.2 µM (inactive) | 20.8 µM (inactive) | – | 23.8 µM (inactive) | – | 18.5 µM (inactive) | 26.1 | 18.6 µM (inactive) | 26.2 µM (inactive) | 19.3 µM (inactive) | 18.2 µM (inactive) | 16.5 µM (inactive) | – | 24 µM (inactive) |
| CCN(CCCN(CC)C(=O)N[C@@H](Cc1ccccc1)C(=O)NC)C(=O)N[C@@H](Cc1ccccc1)C(=O)NC | > 100 µM (inactive) | > 100 µM (inactive) | – | > 100 µM (inactive) | > 100 µM (inactive) | > 100 µM (inactive) | > 100 µM (inactive) | > 100 µM (inactive) | – | > 100 µM (inactive) | > 100 µM (inactive) | > 100 µM (inactive) | > 100 | > 100 µM (inactive) | > 100 µM (inactive) | > 100 µM (inactive) | > 100 µM (inactive) | > 100 µM (inactive) | – | > 100 µM (inactive) |
| O=c1[nH]c(=O)n(C2CC(O)C(CO)O2)cc1OC/C=C/Cc1ccccc1 (stereo not drawn) | > 100 µM (inactive) | – | > 100 µM (inactive) | > 100 µM (inactive) | > 100 µM (inactive) | > 100 µM (inactive) | > 100 µM (inactive) | – | > 100 µM (inactive) | – | > 100 µM (inactive) | > 100 µM (inactive) | > 100 | > 100 µM (inactive) | > 100 µM (inactive) | > 100 µM (inactive) | > 100 µM (inactive) | > 100 µM (inactive) | > 100 µM (inactive) | – |
| CCCc1nc(NC#N)nc(C(=O)Nc2ccccc2)c1CC | > 100 µM (inactive) | > 100 µM (inactive) | > 100 µM (inactive) | > 100 µM (inactive) | > 100 µM (inactive) | > 100 µM (inactive) | > 100 µM (inactive) | > 100 µM (inactive) | > 100 µM (inactive) | > 100 µM (inactive) | > 100 µM (inactive) | > 100 µM (inactive) | > 100 | > 100 µM (inactive) | > 100 µM (inactive) | > 100 µM (inactive) | > 100 µM (inactive) | > 100 µM (inactive) | – | – |
| COc1cc(C2=NNC(=O)c3ccccc3N2c2nc(-c3cccs3)nc3ccc(Br)cc23)cc(OC)c1OC | 17.3 µM (inactive) | 31.2 µM (inactive) | – | – | 36.1 µM (inactive) | 40.1 µM (inactive) | 4.62 µM (inactive) | – | 2.42 µM (inactive) | 34.8 µM (inactive) | 23.2 µM (inactive) | 17.1 µM (inactive) | 4.38 | 21.5 µM (inactive) | 2.91 µM (inactive) | – | 7.11 µM (inactive) | 5.4 µM (inactive) | 2.33 µM (inactive) | – |
| C#CCOCn1cnc2c(S)ncnc21 | > 100 µM (inactive) | > 100 µM (inactive) | > 100 µM (inactive) | > 100 µM (inactive) | > 100 µM (inactive) | > 100 µM (inactive) | > 100 µM (inactive) | > 100 µM (inactive) | > 100 µM (inactive) | > 100 µM (inactive) | > 100 µM (inactive) | > 100 µM (inactive) | > 100 | > 100 µM (inactive) | > 100 µM (inactive) | > 100 µM (inactive) | > 100 µM (inactive) | > 100 µM (inactive) | – | – |

— ChEMBL document CHEMBL1201862, “PubChem BioAssay data set” (2004)
